Data from ChEMBL document CHEMBL5649169 (ChemMedChem, 2018).

Tests used:
[1] = target: NADH dehydrogenase [ubiquinone] iron-sulfur protein 2, mitochondrial (Homo sapiens) (UniProt O75306)
[2] = target: Nuclear mitotic apparatus protein 1 (Homo sapiens) (UniProt Q14980)
[3] = target: Histone H1.5 (Homo sapiens) (UniProt P16401)
[4] = target: 26S proteasome regulatory subunit 10B (Homo sapiens) (UniProt P62333)
[5] = target: Exocyst complex component 1 (Homo sapiens) (UniProt Q9NV70)
[6] = target: Stomatin-like protein 2, mitochondrial (Homo sapiens) (UniProt Q9UJZ1)
[7] = target: Pyruvate dehydrogenase E1 component subunit alpha, somatic form, mitochondrial (Homo sapiens) (UniProt P08559)
[8] = target: Endoplasmic reticulum aminopeptidase 1 (Homo sapiens) (UniProt Q9NZ08)
[9] = target: Eukaryotic translation elongation factor 1 epsilon-1 (Homo sapiens) (UniProt O43324)
[10] = target: STE20-like serine/threonine-protein kinase (Homo sapiens) (UniProt Q9H2G2)
Chain of STE20-like serine/threonine-protein kinase (Homo sapiens) (Q9H2G2 whole entry, looked up): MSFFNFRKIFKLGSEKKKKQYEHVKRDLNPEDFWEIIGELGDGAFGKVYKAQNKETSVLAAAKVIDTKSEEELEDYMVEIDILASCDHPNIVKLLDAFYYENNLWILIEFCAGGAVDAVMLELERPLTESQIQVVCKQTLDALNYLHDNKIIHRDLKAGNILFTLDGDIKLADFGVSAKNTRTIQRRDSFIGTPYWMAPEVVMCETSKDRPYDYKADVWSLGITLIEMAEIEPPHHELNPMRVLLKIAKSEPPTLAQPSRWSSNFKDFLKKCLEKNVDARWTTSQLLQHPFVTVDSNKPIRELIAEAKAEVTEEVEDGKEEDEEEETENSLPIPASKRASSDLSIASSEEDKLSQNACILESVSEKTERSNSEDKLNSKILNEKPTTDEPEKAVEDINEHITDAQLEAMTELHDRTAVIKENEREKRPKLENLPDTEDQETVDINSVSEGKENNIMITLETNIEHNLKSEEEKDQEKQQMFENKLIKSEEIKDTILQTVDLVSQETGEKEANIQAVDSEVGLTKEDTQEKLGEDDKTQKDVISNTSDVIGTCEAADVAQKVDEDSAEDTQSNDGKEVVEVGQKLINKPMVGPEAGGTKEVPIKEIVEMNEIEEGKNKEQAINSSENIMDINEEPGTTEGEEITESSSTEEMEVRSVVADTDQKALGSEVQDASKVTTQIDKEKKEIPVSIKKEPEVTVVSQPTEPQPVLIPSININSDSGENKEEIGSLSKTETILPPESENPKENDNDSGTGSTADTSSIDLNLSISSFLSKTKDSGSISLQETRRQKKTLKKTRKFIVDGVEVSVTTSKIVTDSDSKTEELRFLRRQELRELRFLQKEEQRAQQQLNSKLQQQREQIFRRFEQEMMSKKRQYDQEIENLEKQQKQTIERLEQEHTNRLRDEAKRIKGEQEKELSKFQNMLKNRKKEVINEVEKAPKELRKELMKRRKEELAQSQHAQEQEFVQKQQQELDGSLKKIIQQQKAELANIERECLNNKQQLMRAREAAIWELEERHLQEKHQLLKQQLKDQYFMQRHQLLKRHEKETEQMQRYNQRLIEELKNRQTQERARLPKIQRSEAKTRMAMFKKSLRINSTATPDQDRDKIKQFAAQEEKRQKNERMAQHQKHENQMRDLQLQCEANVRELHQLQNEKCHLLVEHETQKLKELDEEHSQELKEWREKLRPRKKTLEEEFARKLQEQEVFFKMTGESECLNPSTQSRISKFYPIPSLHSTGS

[11] = target: L-lactate dehydrogenase B chain (Homo sapiens) (UniProt P07195)
[12] = target: Membrane-associated progesterone receptor component 1 (Homo sapiens) (UniProt O00264)
[13] = target: Cyclin-dependent kinase 9 (Homo sapiens) (UniProt P50750)
[14] = target: Non-selective voltage-gated ion channel VDAC1 (Homo sapiens) (UniProt P21796)
[15] = target: Activin receptor type-2B (Homo sapiens) (UniProt Q13705)
[16] = target: Peptidyl-prolyl cis-trans isomerase A (Homo sapiens) (UniProt P62937)
Chain of Peptidyl-prolyl cis-trans isomerase A (Homo sapiens) (P62937 whole entry, looked up): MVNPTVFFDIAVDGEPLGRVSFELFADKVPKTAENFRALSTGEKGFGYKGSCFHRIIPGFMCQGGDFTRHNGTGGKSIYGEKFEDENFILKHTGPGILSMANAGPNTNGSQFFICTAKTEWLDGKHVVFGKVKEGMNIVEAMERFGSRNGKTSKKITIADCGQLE

[17] = target: Eukaryotic translation initiation factor 5B (Homo sapiens) (UniProt O60841)
[18] = target: Synaptophysin-like protein 1 (Homo sapiens) (UniProt Q16563)
[19] = target: Eukaryotic translation initiation factor 3 subunit L (Homo sapiens) (UniProt Q9Y262)
[20] = target: Signal peptidase complex catalytic subunit SEC11A (Homo sapiens) (UniProt P67812)
[21] = target: Dopamine beta-hydroxylase (Homo sapiens) (UniProt P09172)
[22] = target: Nuclear pore complex protein Nup160 (Homo sapiens) (UniProt Q12769)
[23] = target: Coatomer subunit gamma-1 (Homo sapiens) (UniProt Q9Y678)
Chain of Coatomer subunit gamma-1 (Homo sapiens) (Q9Y678 whole entry): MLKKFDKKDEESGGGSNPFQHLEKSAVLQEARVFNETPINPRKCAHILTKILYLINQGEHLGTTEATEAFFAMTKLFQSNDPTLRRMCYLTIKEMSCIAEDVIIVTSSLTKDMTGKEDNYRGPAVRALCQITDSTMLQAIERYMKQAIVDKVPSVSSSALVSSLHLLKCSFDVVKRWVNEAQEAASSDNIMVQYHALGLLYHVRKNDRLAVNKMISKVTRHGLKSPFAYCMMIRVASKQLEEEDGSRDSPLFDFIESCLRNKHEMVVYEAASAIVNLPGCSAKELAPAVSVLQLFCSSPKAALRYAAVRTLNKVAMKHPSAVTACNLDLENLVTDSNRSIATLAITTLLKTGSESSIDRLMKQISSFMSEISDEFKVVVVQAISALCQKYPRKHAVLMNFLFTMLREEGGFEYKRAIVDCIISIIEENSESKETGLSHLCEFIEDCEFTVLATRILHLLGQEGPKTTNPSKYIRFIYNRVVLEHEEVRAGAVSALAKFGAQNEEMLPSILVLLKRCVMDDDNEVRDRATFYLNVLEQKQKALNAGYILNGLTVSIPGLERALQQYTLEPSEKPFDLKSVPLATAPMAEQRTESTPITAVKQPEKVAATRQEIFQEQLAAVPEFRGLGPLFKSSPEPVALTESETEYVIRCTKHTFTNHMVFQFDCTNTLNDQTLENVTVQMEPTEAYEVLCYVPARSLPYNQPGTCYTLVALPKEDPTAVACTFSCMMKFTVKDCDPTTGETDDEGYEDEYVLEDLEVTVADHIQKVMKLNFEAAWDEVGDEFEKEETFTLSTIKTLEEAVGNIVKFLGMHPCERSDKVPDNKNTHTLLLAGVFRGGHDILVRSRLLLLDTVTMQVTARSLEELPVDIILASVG

[24] = target: HLA class I histocompatibility antigen, A alpha chain (Homo sapiens) (UniProt P04439)
[25] = target: Serine/threonine-protein phosphatase 2A 55 kDa regulatory subunit B alpha isoform (Homo sapiens) (UniProt P63151)
[26] = target: Protein SGT1 homolog (Homo sapiens) (UniProt Q9Y2Z0)
[27] = target: DNA replication licensing factor MCM2 (Homo sapiens) (UniProt P49736)
Chain of DNA replication licensing factor MCM2 (Homo sapiens) (P49736 whole entry): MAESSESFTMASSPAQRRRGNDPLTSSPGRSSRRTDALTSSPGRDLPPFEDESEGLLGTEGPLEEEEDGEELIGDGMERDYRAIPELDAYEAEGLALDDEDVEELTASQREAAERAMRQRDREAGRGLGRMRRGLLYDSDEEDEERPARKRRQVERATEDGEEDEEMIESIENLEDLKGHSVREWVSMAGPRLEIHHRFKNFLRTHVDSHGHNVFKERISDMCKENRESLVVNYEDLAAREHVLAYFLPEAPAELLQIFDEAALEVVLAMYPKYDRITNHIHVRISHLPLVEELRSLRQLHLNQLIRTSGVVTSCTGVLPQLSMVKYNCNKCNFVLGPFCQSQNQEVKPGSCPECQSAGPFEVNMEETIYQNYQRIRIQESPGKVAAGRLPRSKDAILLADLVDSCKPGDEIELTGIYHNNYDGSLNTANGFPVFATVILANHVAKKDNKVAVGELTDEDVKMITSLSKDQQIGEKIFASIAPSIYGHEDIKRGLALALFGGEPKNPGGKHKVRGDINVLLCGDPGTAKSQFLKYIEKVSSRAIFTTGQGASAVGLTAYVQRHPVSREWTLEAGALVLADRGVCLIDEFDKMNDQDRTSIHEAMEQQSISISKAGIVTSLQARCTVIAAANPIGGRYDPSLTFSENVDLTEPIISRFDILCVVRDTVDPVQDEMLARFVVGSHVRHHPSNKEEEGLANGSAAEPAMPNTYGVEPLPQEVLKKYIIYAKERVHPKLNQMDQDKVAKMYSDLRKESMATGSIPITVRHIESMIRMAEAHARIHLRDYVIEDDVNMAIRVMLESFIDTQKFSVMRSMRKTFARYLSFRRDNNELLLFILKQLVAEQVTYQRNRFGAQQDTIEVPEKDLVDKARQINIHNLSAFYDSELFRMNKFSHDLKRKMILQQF

[28] = target: SERPINE1 mRNA-binding protein 1 (Homo sapiens) (UniProt Q8NC51)
[29] = species on record: Homo sapiens
[30] = target: Dynein light chain 2, cytoplasmic (Homo sapiens) (UniProt Q96FJ2)
[31] = target: Nucleosome assembly protein 1-like 1 (Homo sapiens) (UniProt P55209)
[32] = target: Mitochondrial import inner membrane translocase subunit TIM50 (Homo sapiens) (UniProt Q3ZCQ8)
[33] = target: Vimentin (Homo sapiens) (UniProt P08670)
[34] = target: Ephrin type-B receptor 6 (Homo sapiens) (UniProt O15197)
[35] = target: Calcium load-activated calcium channel (Homo sapiens) (UniProt Q9UM00)
[36] = target: Eukaryotic translation initiation factor 3 subunit J (Homo sapiens) (UniProt O75822)
[37] = target: Tyrosine-protein kinase CSK (Homo sapiens) (UniProt P41240)
[38] = target: Dual specificity mitogen-activated protein kinase kinase 5 (Homo sapiens) (UniProt Q13163)
[39] = target: CYFIP-related Rac1 interactor B (Homo sapiens) (UniProt Q9NUQ9)
[40] = target: Protein transport protein Sec61 subunit beta (Homo sapiens) (UniProt P60468)
Chain of Protein transport protein Sec61 subunit beta (Homo sapiens) (P60468 whole entry): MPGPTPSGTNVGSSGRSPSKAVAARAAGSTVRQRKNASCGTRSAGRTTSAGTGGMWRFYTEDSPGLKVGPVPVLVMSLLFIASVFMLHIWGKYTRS

[41] = target: Large ribosomal subunit protein eL8 (Homo sapiens) (UniProt P62424)
[42] = target: Integrin beta-4 (Homo sapiens) (UniProt P16144)
Chain of Integrin beta-4 (Homo sapiens) (P16144 whole entry): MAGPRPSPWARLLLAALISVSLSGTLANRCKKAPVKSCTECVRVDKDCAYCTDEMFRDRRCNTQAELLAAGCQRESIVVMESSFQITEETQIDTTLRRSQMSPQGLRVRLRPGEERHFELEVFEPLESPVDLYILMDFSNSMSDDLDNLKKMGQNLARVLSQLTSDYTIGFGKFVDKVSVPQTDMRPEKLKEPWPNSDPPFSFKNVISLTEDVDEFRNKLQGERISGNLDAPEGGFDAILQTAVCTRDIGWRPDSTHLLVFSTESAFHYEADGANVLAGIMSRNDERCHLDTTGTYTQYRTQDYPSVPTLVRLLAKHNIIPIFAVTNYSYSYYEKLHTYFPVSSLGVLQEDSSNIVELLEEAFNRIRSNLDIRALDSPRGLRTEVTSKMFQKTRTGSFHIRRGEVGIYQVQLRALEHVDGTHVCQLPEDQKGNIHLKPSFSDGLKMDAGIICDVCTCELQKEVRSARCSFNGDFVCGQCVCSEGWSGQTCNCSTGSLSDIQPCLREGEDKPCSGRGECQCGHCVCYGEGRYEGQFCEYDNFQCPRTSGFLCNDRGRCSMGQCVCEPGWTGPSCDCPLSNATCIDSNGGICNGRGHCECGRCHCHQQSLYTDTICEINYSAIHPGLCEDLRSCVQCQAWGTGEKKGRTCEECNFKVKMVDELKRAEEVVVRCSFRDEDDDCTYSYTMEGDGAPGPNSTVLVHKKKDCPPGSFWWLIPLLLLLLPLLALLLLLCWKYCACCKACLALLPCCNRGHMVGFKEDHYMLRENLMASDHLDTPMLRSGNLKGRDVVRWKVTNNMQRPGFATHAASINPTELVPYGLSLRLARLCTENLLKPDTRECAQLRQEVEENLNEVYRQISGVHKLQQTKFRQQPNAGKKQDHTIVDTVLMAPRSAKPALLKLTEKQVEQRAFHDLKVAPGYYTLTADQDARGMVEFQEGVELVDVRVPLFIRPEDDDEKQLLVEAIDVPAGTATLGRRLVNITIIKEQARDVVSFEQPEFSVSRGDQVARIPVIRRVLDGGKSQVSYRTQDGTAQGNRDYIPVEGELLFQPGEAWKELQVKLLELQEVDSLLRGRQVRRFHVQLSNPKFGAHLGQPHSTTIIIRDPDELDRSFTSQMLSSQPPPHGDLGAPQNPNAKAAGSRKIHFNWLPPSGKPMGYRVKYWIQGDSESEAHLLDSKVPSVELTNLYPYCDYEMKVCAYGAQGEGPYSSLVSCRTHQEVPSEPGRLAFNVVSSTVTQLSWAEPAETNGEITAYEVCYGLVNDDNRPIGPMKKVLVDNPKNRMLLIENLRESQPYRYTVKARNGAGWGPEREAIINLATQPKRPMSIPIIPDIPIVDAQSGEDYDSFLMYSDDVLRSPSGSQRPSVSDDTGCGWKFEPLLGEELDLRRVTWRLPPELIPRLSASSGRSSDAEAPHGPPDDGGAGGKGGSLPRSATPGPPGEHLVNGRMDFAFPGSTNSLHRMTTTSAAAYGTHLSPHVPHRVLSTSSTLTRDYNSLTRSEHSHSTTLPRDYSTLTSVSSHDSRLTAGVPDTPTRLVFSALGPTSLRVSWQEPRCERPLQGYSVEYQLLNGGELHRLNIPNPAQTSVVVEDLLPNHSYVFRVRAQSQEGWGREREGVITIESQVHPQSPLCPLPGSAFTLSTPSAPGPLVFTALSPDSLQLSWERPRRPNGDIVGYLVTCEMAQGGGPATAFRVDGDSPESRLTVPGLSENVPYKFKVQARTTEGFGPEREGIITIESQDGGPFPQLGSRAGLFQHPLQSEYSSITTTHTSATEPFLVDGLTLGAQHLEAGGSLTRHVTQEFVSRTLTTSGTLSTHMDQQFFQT

[43] = target: Serine/threonine-protein kinase TAO3 (Homo sapiens) (UniProt Q9H2K8)
[44] = target: PCI domain-containing protein 2 (Homo sapiens) (UniProt Q5JVF3)
[45] = target: Protein phosphatase 1G (Homo sapiens) (UniProt O15355)
[46] = target: Calmodulin-1 (Homo sapiens) (UniProt P0DP23)
Further: assay method not described here.

Work on Cc1ccc(C(=O)Nc2cccc(C(F)(F)F)c2)cc1Nc1nc(-c2cccnc2)nc2c1cnn2C yielded an ED50 [1] of 0.0453 µM, an ED50 [2] of 0.000308 µM and an ED50 [3] of 4 µM. For the same compound, the ED50 [4] was 43.4 µM, the ED50 [5] was 0.0112 µM and the ED50 [6] was 0.0199 µM. It also gave an ED50 [7] of 0.101 µM, an ED50 [8] of 6.22 µM and an ED50 [9] of 0.168 µM. The ED50 [10] was 0.0219 µM, the ED50 [11] was 0.00831 µM and the ED50 [12] was 0.651 µM. The ED50 [13] was 4.6 µM, the ED50 [14] was 0.00899 µM and the ED50 [15] was 4.77 µM. It also gave an ED50 [16] of 0.396 µM, an ED50 [17] of 41.8 µM and an ED50 [18] of 6.43 µM. For the same compound, the ED50 [19] was 2.5 µM, the ED50 [20] was 430 µM and the ED50 [21] was 2.26 µM. For the same compound, the ED50 [22] was 0.878 µM, the ED50 [23] was 0.164 µM and the ED50 [24] was 19000 µM. It also gave an ED50 [25] of 3.68 µM, an ED50 [26] of 17.2 µM and an ED50 [27] of 3.39 µM. For the same compound, the ED50 [28] was 0.0274 µM, the ED50 [29] was 33.9 µM and the ED50 [30] was 0.148 µM. The ED50 [31] was 3.1 µM, the ED50 [32] was 3.59 µM and the ED50 [33] was 1.03 µM. The ED50 [34] was 0.364 µM, the ED50 [35] was 0.0219 µM and the ED50 [36] was 0.126 µM. The ED50 [37] was 4.52 µM, the ED50 [38] was 5.94 µM and the ED50 [39] was 4.85 µM. For the same compound, the ED50 [40] was 11.5 µM, the ED50 [41] was 2.57 µM and the ED50 [42] was 3.51 µM. The ED50 [43] was 5.85 µM, the ED50 [44] was 1.92 µM and the ED50 [45] was 0.442 µM. For the same compound, the ED50 [46] was 0.11 µM.

In the case of Cc1ccc(C(=O)Nc2cccc(C(F)(F)F)c2)cc1Nc1nc(-c2cccnc2)nc2nn(C)cc12, the ED50 [1] is reported as 1.24 µM, the ED50 [2] is reported as 0.0318 µM and the ED50 [3] is reported as 1000 µM. The ED50 [4] was 0.164 µM, the ED50 [5] was 0.0794 µM and the ED50 [6] was 0.0386 µM. For the same compound, the ED50 [7] was 0.492 µM, the ED50 [8] was 8.49 µM and the ED50 [9] was 0.502 µM. It also gave an ED50 [10] of 0.187 µM, an ED50 [11] of 9.99 µM and an ED50 [12] of 23.2 µM. The ED50 [13] was 0.135 µM, the ED50 [14] was 0.0559 µM and the ED50 [15] was 0.00453 µM. The ED50 [16] was 2.04 µM, the ED50 [17] was 383 µM and the ED50 [18] was 0.0536 µM. The ED50 [19] was 0.0714 µM, the ED50 [20] was 6.74 µM and the ED50 [21] was 3.14 µM. For the same compound, the ED50 [22] was 160 µM, the ED50 [23] was 2.75 µM and the ED50 [24] was 0.0554 µM. The ED50 [25] was 0.377 µM, the ED50 [26] was 4.08 µM and the ED50 [27] was 0.0024 µM. For the same compound, the ED50 [28] was 11 µM, the ED50 [29] was 0.0569 µM and the ED50 [30] was 0.459 µM. It also gave an ED50 [31] of 147 µM, an ED50 [32] of 1.85 µM and an ED50 [33] of 1.62 µM. For the same compound, the ED50 [34] was 6.14 µM, the ED50 [35] was 0.281 µM and the ED50 [36] was 0.54 µM. For the same compound, the ED50 [37] was 1.86 µM, the ED50 [38] was 0.00101 µM and the ED50 [39] was 43 µM. The ED50 [40] was 3 µM, the ED50 [41] was 9.78 µM and the ED50 [42] was 825 µM. The ED50 [43] was 0.0641 µM, the ED50 [44] was 1450 µM and the ED50 [45] was 35 µM. For the same compound, the ED50 [46] was 0.213 µM.
